Several values for one entry are separate records, joined by “and”; a condition that tells them apart may be missing. Equal values may be shown once.
Target: Prostaglandin F2-alpha receptor (Homo sapiens, UniProt P43088)
Test: 470 nm/em. 525 nm in a fluorescence measuring instrument (FLIPR Tetra, MolecularDevices) for 120 seconds.
Format: cell-based

Prostaglandin F2-alpha receptor, sequence (P43088 whole entry): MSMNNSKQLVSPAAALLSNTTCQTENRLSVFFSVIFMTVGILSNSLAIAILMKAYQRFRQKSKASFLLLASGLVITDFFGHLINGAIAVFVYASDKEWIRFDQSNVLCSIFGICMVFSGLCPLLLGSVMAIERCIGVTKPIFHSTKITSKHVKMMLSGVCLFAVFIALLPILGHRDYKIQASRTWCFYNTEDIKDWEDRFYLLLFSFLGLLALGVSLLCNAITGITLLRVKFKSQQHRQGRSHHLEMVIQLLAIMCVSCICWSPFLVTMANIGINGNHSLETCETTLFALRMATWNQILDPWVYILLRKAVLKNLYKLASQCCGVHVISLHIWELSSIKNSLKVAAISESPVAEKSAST

Cc1c(-c2ccccc2)nc2ccc(Br)cc2c1C(=O)Nc1ccc(C(=O)O)cc1F
IC50: 0.053 µM and 0.047 µM

Reference: ChEMBL document CHEMBL5726207, “Substituted N,2-diarylquinoline-4-carboxamides and the use thereof as anti-inflammatory agents” (2019)
